# Measurements: patent US20080009418A1, “Selective Inhibitors” (Alchemia LTD., priority 2004, published 2008)
# How the values were obtained:
# [1] = biological target: T1, Human δ-opioid (DOP) (Homo sapiens, UniProt P41143); test: Radioligand binding, human δ-opioid (DOP) membranes, FlashPlate, [3H]-Bremazocine; conditions: compound at 10 μM; for A1 radioligand binding inhibition: human δ-opioid (DOP) membranes
# T1 construct: purchased Perkin Elmer Biosignal
# Procedure, shortened: (§1)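 Cloned human receptor membranes were coated onto FlashPlate wells and incubated with radioligand and compound (added from a 0.5 mM DMSO daughter plate) for 1 hour at room temperature in the dark. Scintillation counting gave percent inhibition, with DMSO defining total and reference ligand defining non-specific binding.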
# [2] = biological target: T2, Human κ-Opioid (KOP) (Homo sapiens, UniProt P41145); test: Radioligand binding, human κ-opioid (KOP) membranes, filtration, [3H]-Diprenorphine; conditions: compound at 10 μM; for A2 radioligand binding inhibition: human κ-opioid (KOP) membranes
# T2 construct: purchased Perkin Elmer Biosignal
# Procedure, shortened: (§2)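 Membranes from cloned human receptors were incubated with compound and radioligand for 1 hour at room temperature. Bound ligand was collected on 0.3% PEI-soaked filters, washed with cold 50 mM Tris-HCl pH 7.4, and counted by scintillation. Percent inhibition was computed against DMSO totals and reference-ligand nonspecific wells.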
# [3] = biological target: T3, Human Melanocortin (MC3) (Homo sapiens, UniProt P41968); test: Radioligand binding, human melanocortin MC3 membranes, FlashPlate, [125I]-NDP-αMSH; conditions: compound at 10 μM; for A3 radioligand binding inhibition: human melanocortin MC3 membranes
# T3 construct: purchased Perkin Elmer Biosignal
# Procedure, shortened: as §1
# [4] = biological target: T4, Human Melanocortin (MC4) (Homo sapiens, UniProt P32245); test: Radioligand binding, human melanocortin MC4 membranes, FlashPlate, [125I]-NDP-αMSH; conditions: compound at 10 μM; for A4 radioligand binding inhibition: human melanocortin MC4 membranes
# T4 construct: purchased Perkin Elmer Biosignal
# Procedure, shortened: as §1
# [5] = biological target: T5, Human melanocortin (MC5) (Homo sapiens, UniProt P33032); test: Radioligand binding, human melanocortin MC5 membranes, FlashPlate, [125I]-NDP-αMSH; conditions: compound at 10 μM; for A5 radioligand binding inhibition: human melanocortin MC5 membranes
# T5 construct: purchased Perkin Elmer Biosignal
# Procedure, shortened: as §1
# [6] = biological target: T6, Human melanin-concentrating hormone (MCH1) (Homo sapiens, UniProt Q99705); test: Radioligand binding, human melanin-concentrating hormone MCH1 membranes, FlashPlate, [125I]-S36057; conditions: compound at 10 μM; for A6 radioligand binding inhibition: human MCH1 membranes
# T6 construct: purchased Perkin Elmer Biosignal
# Procedure, shortened: as §1
# [7] = biological target: T7, Human μ-opioid (MOP) (Homo sapiens, UniProt P35372); test: Radioligand binding, human μ-opioid (MOP) membranes, FlashPlate, [3H]-Naloxone; conditions: compound at 10 μM; for A7 radioligand binding inhibition: human μ-opioid (MOP) membranes
# T7 construct: purchased Perkin Elmer Biosignal
# Procedure, shortened: as §1
# [8] = biological target: T8, Human neurokinin (NK1) (Homo sapiens, UniProt P25103); test: Radioligand binding, human neurokinin NK1 membranes, filtration, [125I]-Substance P; conditions: compound at 10 μM; for A8 radioligand binding inhibition: human neurokinin NK1 membranes
# T8 construct: purchased Perkin Elmer Biosignal
# Procedure, shortened: as §2
# [9] = biological target: T9, Human neuropeptide Y (NPY-Y1) (Homo sapiens, UniProt P25929); test: Radioligand binding, human neuropeptide Y NPY-Y1 membranes, FlashPlate, [125I]-PYY; conditions: compound at 10 μM; for A9 radioligand binding inhibition: human NPY-Y1 membranes
# T9 construct: purchased Perkin Elmer Biosignal
# T9 sequence (P25929 1-384): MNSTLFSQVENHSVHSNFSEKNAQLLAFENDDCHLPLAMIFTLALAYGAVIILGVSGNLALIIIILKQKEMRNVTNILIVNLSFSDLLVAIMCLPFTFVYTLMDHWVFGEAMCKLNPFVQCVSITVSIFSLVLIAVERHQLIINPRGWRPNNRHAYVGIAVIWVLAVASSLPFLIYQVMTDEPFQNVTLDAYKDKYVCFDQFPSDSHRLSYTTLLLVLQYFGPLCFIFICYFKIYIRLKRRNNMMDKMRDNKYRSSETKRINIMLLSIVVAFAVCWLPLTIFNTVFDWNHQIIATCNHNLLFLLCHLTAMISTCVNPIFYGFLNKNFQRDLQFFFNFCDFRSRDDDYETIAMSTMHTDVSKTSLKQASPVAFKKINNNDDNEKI
# Procedure, shortened: as §1
# [10] = biological target: T10, Human opioid (ORL1) (Homo sapiens, UniProt P41146); test: Radioligand binding, human opioid ORL1 membranes, FlashPlate, [125I]-Nociceptin; conditions: compound at 10 μM; for A10 radioligand binding inhibition: human ORL1 membranes
# T10 construct: purchased Perkin Elmer Biosignal
# Procedure, shortened: as §1
# [11] = biological target: T11, Mouse urotensin (mUR2) (Mus musculus, UniProt Q8VIH9); test: Radioligand binding, mouse urotensin mUR2 membranes, FlashPlate, [125I]-Urotensin II; conditions: compound at 10 μM; for A11 radioligand binding inhibition: mouse urotensin mUR2 membranes
# T11 construct: purchased Perkin Elmer Biosignal
# T11 sequence (Q8VIH9 1-385): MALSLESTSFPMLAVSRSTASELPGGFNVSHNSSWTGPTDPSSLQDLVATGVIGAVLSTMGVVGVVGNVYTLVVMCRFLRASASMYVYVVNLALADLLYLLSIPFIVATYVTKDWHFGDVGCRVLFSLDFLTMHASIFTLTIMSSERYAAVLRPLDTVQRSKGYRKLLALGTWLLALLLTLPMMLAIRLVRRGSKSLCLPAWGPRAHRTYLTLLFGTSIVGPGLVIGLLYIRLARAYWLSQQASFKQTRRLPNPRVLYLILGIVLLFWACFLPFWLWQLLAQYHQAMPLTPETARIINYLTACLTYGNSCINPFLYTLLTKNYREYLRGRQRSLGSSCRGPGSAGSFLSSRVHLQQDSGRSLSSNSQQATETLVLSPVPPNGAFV
# Procedure, shortened: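 Cloned mouse urotensin (mUR2) receptor membranes from Perkin Elmer Biosignal were immobilized in FlashPlate microplates using a proprietary coating. Each well got 19.5 μl buffer, then 0.5 μl of DMSO, reference ligand, or compound. Adding 5 μl of [125I]-Urotensin II, diluted to 5× final concentration in binding buffer, started binding. Plates were sealed with TopSeal-A and incubated 1 hour at room temperature in the dark. Wells were counted for 30 seconds each on a TopCount after a 60-second delay, and percentage inhibition was calculated.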
# T4 sequence (P32245 whole entry): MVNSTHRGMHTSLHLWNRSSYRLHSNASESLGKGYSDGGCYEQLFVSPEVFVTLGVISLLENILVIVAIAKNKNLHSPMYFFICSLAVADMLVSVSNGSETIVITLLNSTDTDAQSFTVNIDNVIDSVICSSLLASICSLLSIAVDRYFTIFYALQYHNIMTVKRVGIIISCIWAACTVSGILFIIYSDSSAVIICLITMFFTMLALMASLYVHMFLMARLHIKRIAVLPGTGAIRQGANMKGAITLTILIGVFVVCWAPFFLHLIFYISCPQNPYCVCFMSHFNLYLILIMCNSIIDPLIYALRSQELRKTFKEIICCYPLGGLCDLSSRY
# T10 sequence (P41146 whole entry): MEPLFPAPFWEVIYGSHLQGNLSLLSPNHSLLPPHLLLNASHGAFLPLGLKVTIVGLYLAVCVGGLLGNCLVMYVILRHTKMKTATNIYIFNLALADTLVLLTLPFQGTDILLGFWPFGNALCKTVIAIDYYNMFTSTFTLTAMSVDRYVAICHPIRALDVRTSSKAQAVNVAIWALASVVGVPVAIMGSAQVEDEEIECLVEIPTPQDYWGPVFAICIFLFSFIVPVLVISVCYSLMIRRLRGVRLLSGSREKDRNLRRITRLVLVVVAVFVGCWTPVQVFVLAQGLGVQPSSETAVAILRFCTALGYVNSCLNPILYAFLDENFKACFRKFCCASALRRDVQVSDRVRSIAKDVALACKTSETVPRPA
# T7 sequence (P35372 whole entry): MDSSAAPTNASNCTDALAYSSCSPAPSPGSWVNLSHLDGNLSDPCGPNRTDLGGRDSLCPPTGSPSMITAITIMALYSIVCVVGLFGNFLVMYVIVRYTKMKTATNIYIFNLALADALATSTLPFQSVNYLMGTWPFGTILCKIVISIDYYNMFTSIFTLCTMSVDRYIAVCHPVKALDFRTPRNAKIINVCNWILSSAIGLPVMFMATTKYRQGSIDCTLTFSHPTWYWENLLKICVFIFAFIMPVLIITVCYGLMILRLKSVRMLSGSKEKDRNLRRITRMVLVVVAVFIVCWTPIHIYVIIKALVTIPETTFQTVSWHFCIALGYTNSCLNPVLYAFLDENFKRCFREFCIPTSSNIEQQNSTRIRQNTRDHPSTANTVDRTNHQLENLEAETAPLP
# T8 sequence (P25103 whole entry): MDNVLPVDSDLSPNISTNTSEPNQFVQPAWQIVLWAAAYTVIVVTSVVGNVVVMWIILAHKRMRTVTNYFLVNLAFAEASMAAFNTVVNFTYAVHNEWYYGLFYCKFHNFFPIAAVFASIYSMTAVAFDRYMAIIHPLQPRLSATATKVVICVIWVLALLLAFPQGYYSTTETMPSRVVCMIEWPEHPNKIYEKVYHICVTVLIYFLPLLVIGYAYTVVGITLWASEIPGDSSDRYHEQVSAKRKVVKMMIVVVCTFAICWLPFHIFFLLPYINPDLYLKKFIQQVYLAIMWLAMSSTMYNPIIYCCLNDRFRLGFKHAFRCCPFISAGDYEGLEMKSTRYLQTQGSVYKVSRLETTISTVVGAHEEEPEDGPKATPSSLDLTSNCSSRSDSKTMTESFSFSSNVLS
# T6 sequence (Q99705 whole entry): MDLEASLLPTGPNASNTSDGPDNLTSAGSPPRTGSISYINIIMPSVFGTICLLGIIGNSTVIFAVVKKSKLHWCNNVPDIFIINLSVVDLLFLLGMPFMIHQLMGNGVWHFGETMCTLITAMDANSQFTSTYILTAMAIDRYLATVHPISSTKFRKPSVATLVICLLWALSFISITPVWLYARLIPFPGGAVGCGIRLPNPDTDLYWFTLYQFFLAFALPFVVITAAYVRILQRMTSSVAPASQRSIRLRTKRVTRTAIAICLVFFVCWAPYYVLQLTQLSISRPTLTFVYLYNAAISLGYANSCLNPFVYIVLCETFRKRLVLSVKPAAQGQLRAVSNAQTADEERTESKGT
# T3 sequence (P41968 whole entry): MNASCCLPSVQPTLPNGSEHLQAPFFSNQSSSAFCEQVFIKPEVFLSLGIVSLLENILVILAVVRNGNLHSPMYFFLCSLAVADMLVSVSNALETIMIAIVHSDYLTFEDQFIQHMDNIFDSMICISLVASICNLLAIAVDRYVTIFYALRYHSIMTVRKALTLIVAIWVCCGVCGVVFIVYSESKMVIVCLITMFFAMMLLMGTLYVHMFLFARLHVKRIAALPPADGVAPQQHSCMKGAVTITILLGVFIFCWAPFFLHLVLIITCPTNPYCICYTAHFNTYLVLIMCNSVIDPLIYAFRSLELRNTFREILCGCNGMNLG
# T5 sequence (P33032 whole entry): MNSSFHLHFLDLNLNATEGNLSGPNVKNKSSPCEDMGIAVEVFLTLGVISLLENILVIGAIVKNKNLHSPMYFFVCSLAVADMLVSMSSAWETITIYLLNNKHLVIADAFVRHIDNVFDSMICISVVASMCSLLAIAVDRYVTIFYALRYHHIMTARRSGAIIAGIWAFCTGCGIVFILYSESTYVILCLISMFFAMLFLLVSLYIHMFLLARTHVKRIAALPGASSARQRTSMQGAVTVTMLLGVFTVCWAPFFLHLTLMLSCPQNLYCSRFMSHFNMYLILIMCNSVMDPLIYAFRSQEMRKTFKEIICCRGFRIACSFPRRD
# T1 sequence (P41143 whole entry): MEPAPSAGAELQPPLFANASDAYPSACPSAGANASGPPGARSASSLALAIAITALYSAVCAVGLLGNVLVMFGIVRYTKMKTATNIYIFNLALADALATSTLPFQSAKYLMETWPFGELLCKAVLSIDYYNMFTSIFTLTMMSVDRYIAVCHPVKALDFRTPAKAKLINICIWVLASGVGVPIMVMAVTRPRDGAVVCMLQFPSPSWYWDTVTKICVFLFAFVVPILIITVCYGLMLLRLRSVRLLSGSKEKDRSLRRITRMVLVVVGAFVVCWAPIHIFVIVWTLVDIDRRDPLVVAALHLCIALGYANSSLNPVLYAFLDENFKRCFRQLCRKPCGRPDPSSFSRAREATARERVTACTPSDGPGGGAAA
# T2 sequence (P41145 whole entry): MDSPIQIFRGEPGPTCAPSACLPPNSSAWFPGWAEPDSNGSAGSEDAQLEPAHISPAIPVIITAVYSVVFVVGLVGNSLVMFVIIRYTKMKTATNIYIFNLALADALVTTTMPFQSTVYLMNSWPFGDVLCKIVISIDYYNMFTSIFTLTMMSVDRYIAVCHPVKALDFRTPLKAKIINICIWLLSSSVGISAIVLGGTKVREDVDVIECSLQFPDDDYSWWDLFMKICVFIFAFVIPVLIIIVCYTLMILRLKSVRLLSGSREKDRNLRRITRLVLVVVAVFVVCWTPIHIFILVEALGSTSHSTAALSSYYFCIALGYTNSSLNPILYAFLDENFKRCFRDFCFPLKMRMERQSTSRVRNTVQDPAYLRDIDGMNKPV
Compound,A1 radioligand binding inhibition [1],A2 radioligand binding inhibition [2],A3 radioligand binding inhibition [3],A4 radioligand binding inhibition [4],A5 radioligand binding inhibition [5],A6 radioligand binding inhibition [6],A7 radioligand binding inhibition [7],A8 radioligand binding inhibition [8],A9 radioligand binding inhibition [9],A10 radioligand binding inhibition [10],A11 radioligand binding inhibition [11],further results
COC[C@H]1OC(OCc2ccc(Cl)cc2)[C@H](NC(=O)CCCNC(=N)N)[C@@H](OCc2ccc3ccccc3c2)[C@@H]1O (stereo partly drawn) [compound 33],− (“−” indicates less than 50% inhibition at 10 μM),− (“−” indicates less than 50% inhibition at 10 μM),− (“−” indicates less than 50% inhibition at 10 μM),− (“−” indicates less than 50% inhibition at 10 μM),− (“−” indicates less than 50% inhibition at 10 μM),+ (“+” indicates greater than 50% inhibition at 10 μM),− (“−” indicates less than 50% inhibition at 10 μM),+ (“+” indicates greater than 50% inhibition at 10 μM),− (“−” indicates less than 50% inhibition at 10 μM),− (“−” indicates less than 50% inhibition at 10 μM),− (“−” indicates less than 50% inhibition at 10 μM),
CO[C@H]1[C@H](O)[C@@H](COCc2ccc3ccccc3c2)OC(OCc2ccc(Cl)cc2)[C@@H]1NC(=O)CCCN (stereo partly drawn) [compound 99],,,,,,,,,,,,"A1 radioligand binding, percentage inhibition ([1]; [3H]-Bremazocine): − (“−” indicates less than 50% inhibition at 10 μM); A2 radioligand binding, percentage inhibition ([2]; [3H]-Diprenorphine): − (“−” indicates less than 50% inhibition at 10 μM); A3 radioligand binding, percentage inhibition ([3]; [125I]-NDP-αMSH): − (“−” indicates less than 50% inhibition at 10 μM); A4 radioligand binding, percentage inhibition ([4]; [125I]-NDP-αMSH): + (“+” indicates greater than 50% inhibition at 10 μM); A5 radioligand binding, percentage inhibition ([5]; [125I]-NDP-αMSH): + (“+” indicates greater than 50% inhibition at 10 μM); A6 radioligand binding, percentage inhibition ([6]; [125I]-S36057): − (“−” indicates less than 50% inhibition at 10 μM); A7 radioligand binding, percentage inhibition ([7]; [3H]-Naloxone): − (“−” indicates less than 50% inhibition at 10 μM); A8 radioligand binding, percentage inhibition ([8]; [125I]-Substance P): + (“+” indicates greater than 50% inhibition at 10 μM); A9 radioligand binding, percentage inhibition ([9]; [125I]-PYY): − (“−” indicates less than 50% inhibition at 10 μM); A10 radioligand binding, percentage inhibition ([10]; [125I]-Nociceptin): − (“−” indicates less than 50% inhibition at 10 μM); A11 radioligand binding, percentage inhibition ([11]; [125I]-Urotensin II): − (“−” indicates less than 50% inhibition at 10 μM)"
NCC(=O)NC1O[C@H](CO)[C@@H](O)[C@H](OCc2ccccc2)[C@H]1NC(=O)c1ccccc1 (stereo partly drawn) [compound 360],,,,,,,,,,,,"A1: inhibition of radioligand binding, human δ-opioid (DOP) ([1]; [3H]-Bremazocine): − (“−” indicates less than 50% inhibition at 10 μM); A2: inhibition of radioligand binding, human κ-opioid (KOP) ([2]; [3H]-Diprenorphine): − (“−” indicates less than 50% inhibition at 10 μM); A3: inhibition of radioligand binding, human melanocortin (MC3) ([3]; [125I]-NDP-αMSH): − (“−” indicates less than 50% inhibition at 10 μM); A4: inhibition of radioligand binding, human melanocortin (MC4) ([4]; [125I]-NDP-αMSH): + (“+” indicates greater than 50% inhibition at 10 μM); A5: inhibition of radioligand binding, human melanocortin (MC5) ([5]; [125I]-NDP-αMSH): − (“−” indicates less than 50% inhibition at 10 μM); A6: inhibition of radioligand binding, human melanin-concentrating hormone (MCH1) ([6]; [125I]-S36057): − (“−” indicates less than 50% inhibition at 10 μM); A7: inhibition of radioligand binding, human μ-opioid (MOP) ([7]; [3H]-Naloxone): − (“−” indicates less than 50% inhibition at 10 μM); A8: inhibition of radioligand binding, human neurokinin (NK1) ([8]; [125I]-Substance P): − (“−” indicates less than 50% inhibition at 10 μM); A9: inhibition of radioligand binding, human neuropeptide Y (NPY-Y1) ([9]; [125I]-PYY): − (“−” indicates less than 50% inhibition at 10 μM); A10: inhibition of radioligand binding, human opioid (ORL1) ([10]; [125I]-Nociceptin): − (“−” indicates less than 50% inhibition at 10 μM); A11: inhibition of radioligand binding, mouse urotensin (mUR2) ([11]; [125I]-Urotensin II): − (“−” indicates less than 50% inhibition at 10 μM)"
COCC1OC(OCc2ccc(Cl)cc2)C(NC(=O)CCN)C(OCc2ccc3ccccc3c2)C1O (stereo not drawn) [compound 210],,,,,,,,,,,,"A1: inhibition of radioligand binding ([1]; [3H]-Bremazocine, FlashPlate): − (“−” indicates less than 50% inhibition at 10 μM); A2: inhibition of radioligand binding ([2]; [3H]-Diprenorphine, filtration): − (“−” indicates less than 50% inhibition at 10 μM); A3: inhibition of radioligand binding ([3]; [125I]-NDP-αMSH, FlashPlate): − (“−” indicates less than 50% inhibition at 10 μM); A4: inhibition of radioligand binding ([4]; [125I]-NDP-αMSH, FlashPlate): + (“+” indicates greater than 50% inhibition at 10 μM); A5: inhibition of radioligand binding ([5]; [125I]-NDP-αMSH, FlashPlate): + (“+” indicates greater than 50% inhibition at 10 μM); A6: inhibition of radioligand binding ([6]; [125I]-S36057, FlashPlate): − (“−” indicates less than 50% inhibition at 10 μM); A7: inhibition of radioligand binding ([7]; [3H]-Naloxone, FlashPlate): − (“−” indicates less than 50% inhibition at 10 μM); A8: inhibition of radioligand binding ([8]; [125I]-Substance P, filtration): + (“+” indicates greater than 50% inhibition at 10 μM); A9: inhibition of radioligand binding ([9]; [125I]-PYY, FlashPlate): − (“−” indicates less than 50% inhibition at 10 μM); A10: inhibition of radioligand binding ([10]; [125I]-Nociceptin, FlashPlate): − (“−” indicates less than 50% inhibition at 10 μM); A11: inhibition of radioligand binding ([11]; [125I]-Urotensin II, FlashPlate): − (“−” indicates less than 50% inhibition at 10 μM)"
COC[C@H]1OC(OCc2ccccc2)[C@H](NC(=O)CCCNC(=N)N)[C@@H](OCc2ccc(-c3ccccc3)cc2)[C@@H]1O (stereo partly drawn) [compound 25],− (“−” indicates less than 50% inhibition at 10 μM),− (“−” indicates less than 50% inhibition at 10 μM),− (“−” indicates less than 50% inhibition at 10 μM),+ (“+” indicates greater than 50% inhibition at 10 μM),+ (“+” indicates greater than 50% inhibition at 10 μM),+ (“+” indicates greater than 50% inhibition at 10 μM),− (“−” indicates less than 50% inhibition at 10 μM),+ (“+” indicates greater than 50% inhibition at 10 μM),− (“−” indicates less than 50% inhibition at 10 μM),− (“−” indicates less than 50% inhibition at 10 μM),− (“−” indicates less than 50% inhibition at 10 μM),
CO[C@H]1[C@H](O)[C@@H](COCc2ccc(Cl)cc2)OC(OCc2ccc3ccccc3c2)[C@@H]1NC(=O)CCCNC(=N)N (stereo partly drawn) [compound 81],− (“−” indicates less than 50% inhibition at 10 μM),+ (“+” indicates greater than 50% inhibition at 10 μM),+ (“+” indicates greater than 50% inhibition at 10 μM),+ (“+” indicates greater than 50% inhibition at 10 μM),+ (“+” indicates greater than 50% inhibition at 10 μM),− (“−” indicates less than 50% inhibition at 10 μM),+ (“+” indicates greater than 50% inhibition at 10 μM),+ (“+” indicates greater than 50% inhibition at 10 μM),− (“−” indicates less than 50% inhibition at 10 μM),− (“−” indicates less than 50% inhibition at 10 μM),− (“−” indicates less than 50% inhibition at 10 μM),
